# Source: patent US20250127725A1, “MAGNESIUM OXIDE TABLETS” (SETOLAS Holdings, Inc., priority 2021, published 2025)
# Tests used:
# Assay type in all cases: physicochemical
# Conditions in all cases: magnesium oxide raw material
# [1] = Angle of repose, Multitester MT-1
# Method: The angle of repose of magnesium oxide particles to be used in the present invention may be set to an upper limit of 50° or less, or 48° or less, since an excessively large angle of repose may lead to a variation in the mass of the resulting tablets during tableting due to deteriorated flowability. On the other hand, the lower limit of the angle of repose is not specified because the lower the angle of repose, the better. The angle of repose can be measured, e.g., using Multitester MT-1 from Seishin Enterprise Co., Ltd.
# (§1) The physical properties of the magnesium oxide used in these examples were measured, and the results were as follows. • Average particle size: 7.691 μm (measured according to laser diffraction scattering using a Microtrac Bell MT3300 EX2) • Bulk density: 0.249 g/mL (measured with 100 mL stainless steel cup (actual mass value (g)/100 (mL)) • Angle of repose: 41.7° (measured using MT-1 Multitester from Seishin Enterprise Co., Ltd.)
# After mixing, the following items were evaluated. • Bulk density: Measured with 100 mL stainless steel cup (actual mass value (g)/100 (mL) • Angle of repose: Measured using MT-1 Multitester from Seishin Enterprise Co., Ltd.
# [2] = Bulk density, 100 mL stainless steel cup
# Method: The bulk density of magnesium oxide particles to be used in the present invention may be set to an upper limit of 0.8 g/mL or less, or 0.7 g/mL or less, since too high a density may cause a decrease in hardness. On the other hand, since too low bulk density may cause capping and lamination, the lower limit may be 0.1 g/mL or more, or 0.2 g/mL or more. Bulk density can be measured, e.g., using a 100 mL stainless steel cup (actual mass value (g)/100 (mL)).
# as §1
# The weighed raw materials of magnesium oxide and internal additives were put into a polyethylene bag (1100 mm×600 mm) and mixed by shaking the bag 30 times from side to side. After the mixing, the bulk density was measured using a 100 mL stainless steel cup (actual mass value (g)/100 (mL)).
# [formula] […]
# [3] = Average particle size of magnesium oxide, laser diffraction scattering, MT3300 EX2
# Method: The average particle size and average particle diameter of the magnesium oxide particles of the present invention and magnesium hydroxide particles used as raw materials therefor can be measured according to laser diffraction scattering method with a commonly used instrument, such as a particle size analyzer (MT3300EX2 from Microtrac Bell Corporation).
# as §1
compound,measurement,setting,value
[O]=[Mg] [Magnesium oxide],Angle of repose,[1],41.7 °
same,Bulk density,[2],0.249 g/mL
same,Average particle size,[3],7.691 μm
